Our source for the IC50 values is patent US20260159484A1, “AKT3 MODULATORS” (GEORGIAMUNE LLC, priority 2021, published 2026).

In general, IC50 refers to the point on the concentration scale where inhibition reaches its midpoint. A high value points to weaker potency.

The target of this assay is T1, Akt3 (Mus musculus, UniProt Q9WUA6).
T1 construct: endogenous in cells; host or cells: primary CD4 conventional T cells (CD4+/CD25-) from C57BL/6 mice
T1 sequence (Q9WUA6 whole entry): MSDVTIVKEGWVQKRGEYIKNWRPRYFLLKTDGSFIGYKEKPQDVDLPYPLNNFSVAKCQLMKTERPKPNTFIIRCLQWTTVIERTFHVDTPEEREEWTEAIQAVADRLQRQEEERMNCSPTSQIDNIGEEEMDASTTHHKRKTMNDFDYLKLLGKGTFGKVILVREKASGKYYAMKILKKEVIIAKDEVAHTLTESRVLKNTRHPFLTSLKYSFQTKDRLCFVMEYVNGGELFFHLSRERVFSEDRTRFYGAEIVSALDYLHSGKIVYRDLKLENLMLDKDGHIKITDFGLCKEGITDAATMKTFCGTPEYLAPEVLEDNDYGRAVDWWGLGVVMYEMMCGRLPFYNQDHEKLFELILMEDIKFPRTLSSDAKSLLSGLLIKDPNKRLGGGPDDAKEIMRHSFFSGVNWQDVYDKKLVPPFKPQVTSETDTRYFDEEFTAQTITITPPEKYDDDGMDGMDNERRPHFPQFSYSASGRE
Kind of assay: Foxp3 induction assay (iTreg induction from CD4 conventional T cells); reported as Akt3 inhibition activity. The format is cell-based. The settings on record: Foxp3 induction in CD4 Tconvs from C57/B16 mice, anti-CD3/anti-CD28, IL2, TGF-β, 3 days of culture, flow cytometry. The method, then:
Sorted or enriched (Miltenyi magnetic separation) CD4 conventional T cells (Tconvs -CD4+/CD25) from C57/B16 mice were used for the induction of iTregs. A 10 μg/mL plate-bound anti-CD3 antibody (50ul per well for 96-well plate), 2.5 μg/mL of soluble anti-CD28 antibody, 100 IU/mL of IL2 and 5 ng/mL of TGF-β in absence or presence of different concentrations of drug (usually titrating from 0.01 uM to 10 uM) were used. As negative control for induction, samples without TGF-β were used.
After 3 days of culture in presence of stimulation, TGF-β and drug, cells were stained with fixable live/dead cell stain (Life Technologies, NY) for gating and exclusion of toxic doses. The mouse Foxp3 buffer kit was used to fix and permeabilize cells according to the manufacturer's instructions (BD Bioscience, San Jose, CA). The anti-CD4 antibody and anti-Foxp3 antibody were used to stain the cells. After staining, cells were acquired using flow cytometer.
On the technique in general: Flow cytometry measures light scatter and fluorescence of single cells or particles in a stream.
As for `Cc1cnc2ccccc2c1Nc1ccc(CC(=O)Nc2ccccc2S(N)(=O)=O)cc1` [Compound 1, 2-(4-((3-methylquinolin-4-yl)amino)phenyl)-N-(2-sulfamoylphenyl)acetamide], the IC50 was less than 1000 nM.
Regarding `CC(=O)c1ccccc1NC(=O)c1ccc(Nc2c(C)cnc3ccccc23)cc1` [Compound 2, N-(2-acetylphenyl)-4-((3-methylquinolin-4-yl)amino)benzamide], the IC50 was less than 1000 nM.
Under `CC(=O)c1ccccc1NC(=O)Cc1ccc(Nc2c(C)cnc3ccccc23)cc1` [Compound 3, N-(2-acetylphenyl)-2-(4-((3-methylquinolin-4-yl)amino)phenyl)acetamide] stands less than 1000 nM; under `CC(=O)c1cccc(NC(=O)Cc2ccc(Nc3cc(C)nc4ccccc34)cc2)c1` [Compound 5, N-(3-acetylphenyl)-2-(4-((2-methylquinolin-4-yl)amino)phenyl)acetamide], less than 2000 nM; under `CC(=O)c1cnccc1NC(=O)Cc1ccc(Nc2cc(C)nc3ccccc23)cc1` [Compound 6, N-(3-acetylpyridin-4-yl)-2-(4-((2-methylquinolin-4-yl)amino)phenyl)acetamide], less than 5000 nM.
